Measured values from the supplement of paper PMC10307832.

How the values were obtained:
Assay in all cases: relative viability (nuclei count vs DMSO), 5 days (fraction); higher = more cells survive
[1] = compound: CC[C@H](Nc1ncnc2[nH]cnc12)c1nc2cccc(F)c2c(=O)n1-c1ccccc1 [Idelalisib] + CC(=O)Nc1cccc(-n2c(=O)n(C3CC3)c(=O)c3c(Nc4ccc(I)cc4F)n(C)c(=O)c(C)c32)c1 [Trametinib] (partner 0.02 µM)
Outline: (§1)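 For relative viability, nuclei counts in treated wells were divided by those in vehicle wells. Lung cancer cell lines had been pin-tool dosed in 1536-well plates the day after seeding and cultured for 5 days, then fixed and stained in one step (final 0.05% Triton X-100, 1% formaldehyde, 1 ug/ml Hoechst) and imaged at 4×. Doses were one drug alone or a fixed anchor-drug dose plus five library-drug doses (not always all listed) in √10 steps, and values are duplicate-plate medians.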

[2] = compound: CC[C@H](Nc1ncnc2[nH]cnc12)c1nc2cccc(F)c2c(=O)n1-c1ccccc1 [Idelalisib] + O=C(CCCCCCC(=O)Nc1ccccc1)NO [Vorinostat] (partner 1 µM)
Outline: as §1

[3] = compound: CC[C@H](Nc1ncnc2[nH]cnc12)c1nc2cccc(F)c2c(=O)n1-c1ccccc1 [Idelalisib] + C[C@@H](Oc1cc(-c2cnn(C3CCNCC3)c2)cnc1N)c1c(Cl)ccc(F)c1Cl [Crizotinib] (partner 1 µM)
Outline: as §1

[4] = compound: Nc1nc2[nH]cc(CCc3ccc(C(=O)N[C@@H](CCC(=O)O)C(=O)O)cc3)c2c(=O)[nH]1 [Pemetrexed] + CCNC(=O)c1noc(-c2cc(C(C)C)c(O)cc2O)c1-c1ccc(CN2CCOCC2)cc1 [Luminespib] (partner 0.01 µM)
Outline: as §1

Cell Line	relative viability ([1]; first compound 0.04 µM)	relative viability ([1]; first compound 0.1265 µM)	relative viability ([1]; first compound 0.4 µM)	relative viability ([1]; first compound 1.265 µM)	relative viability ([1]; first compound 4 µM)	relative viability ([2]; first compound 0.04 µM)	relative viability ([2]; first compound 0.1265 µM)	relative viability ([2]; first compound 0.4 µM)	relative viability ([2]; first compound 1.265 µM)	relative viability ([2]; first compound 4 µM)	relative viability ([3]; first compound 0.04 µM)	relative viability ([3]; first compound 0.1265 µM)	relative viability ([3]; first compound 0.4 µM)	relative viability ([3]; first compound 1.265 µM)	relative viability ([3]; first compound 4 µM)	relative viability ([4]; first compound 0.002 µM)	relative viability ([4]; first compound 0.006325 µM)	relative viability ([4]; first compound 0.02 µM)	relative viability ([4]; first compound 0.06325 µM)	relative viability ([4]; first compound 0.2 µM)
HCC-78	0.68	0.702	0.711	0.704	0.542	0.462	0.448	0.393	0.468	0.332	0.322	0.354	0.296	0.31	0.274	–	–	–	–	–
HCC-366	0.362	0.464	0.274	0.354	0.233	0.391	0.36	0.33	0.293	0.325	0.891	0.398	0.471	0.464	0.411	–	–	–	–	–
HCC-827	0.578	0.517	0.473	0.476	0.424	0.957	0.664	0.897	0.848	0.969	0.978	0.943	0.864	0.927	0.838	0.541	0.633	0.856	0.724	0.382
HOP-62	0.345	0.354	0.292	0.362	0.247	0.669	0.66	0.576	0.619	0.491	0.944	0.964	–	0.806	1.03	0.85	0.936	0.851	0.814	0.932
IA-LM	–	–	–	–	–	0.607	0.907	0.913	1.02	0.944	0.745	0.849	0.944	1.19	0.818	–	–	–	–	–
LC-2-ad	0.963	0.957	0.931	1.02	0.806	0.798	0.702	0.683	0.791	0.703	0.427	0.415	0.447	0.439	0.508	1.09	0.989	0.709	0.313	0.303
LCLC-97TM1	0.194	0.21	0.216	0.228	0.163	0.802	0.871	0.446	0.868	0.685	0.338	0.212	–	0.422	0.295	0.906	0.74	0.81	0.761	0.65
LCLC-103H	0.659	0.607	0.664	0.63	0.64	0.864	0.926	0.664	0.798	0.58	1.03	0.986	0.957	1.09	0.839	0.963	0.942	1.02	0.796	0.94
LK-2	0.87	0.651	0.503	0.588	0.704	0.307	0.295	0.173	0.338	0.221	0.264	0.205	–	0.215	0.235	0.179	0.181	0.187	0.165	0.208
LOU-NH91	0.85	0.803	0.718	0.751	0.781	0.998	0.899	0.794	0.726	0.91	0.791	0.711	0.677	0.68	0.727	0.399	0.318	0.374	0.298	0.315
LU99A	0.6	0.539	0.546	0.542	0.502	0.536	0.468	0.387	0.535	0.506	0.625	0.638	0.578	0.614	0.643	0.264	0.233	0.318	0.261	0.19
NCI-H522	0.76	0.646	0.668	0.727	0.731	0.964	0.846	0.929	0.901	0.956	–	–	–	–	–	1.21	1	1.29	1.12	1.24
NCI-H1299	–	–	–	–	–	–	–	–	–	–	0.99	0.969	0.919	1.08	1.01	–	–	–	–	–
NCI-H1395	1.12	1	0.965	1.07	0.844	0.841	0.813	0.692	0.674	0.692	–	–	–	–	–	0.8	0.718	0.678	0.528	0.758
NCI-H1563	–	–	–	–	–	–	–	–	–	–	0.774	0.87	0.793	0.828	0.728	0.496	0.505	0.562	0.481	0.569
NCI-H1623	–	–	–	–	–	–	–	–	–	–	–	–	–	–	–	0.628	0.325	0.503	0.443	0.613
NCI-H1648	0.418	0.482	0.423	0.433	0.397	0.395	0.483	0.357	0.224	0.31	–	–	–	–	–	–	–	–	–	–
NCI-H1703	–	–	–	–	–	–	–	–	–	–	0.857	0.56	0.631	0.754	0.315	–	–	–	–	–
NCI-H1792	0.487	0.522	0.271	0.56	0.267	–	–	–	–	–	0.612	0.987	0.804	0.979	1.01	0.578	0.51	0.539	0.476	0.45
NCI-H1793	0.431	0.467	–	0.475	0.383	0.764	0.699	–	0.75	0.582	–	–	–	–	–	0.397	0.201	0.152	0.118	0.237
NCI-H2342	0.804	0.851	0.779	0.753	0.658	0.801	0.736	0.689	0.664	0.736	–	–	–	–	–	0.678	0.8	0.676	0.799	0.788
SW 900	0.854	0.861	0.856	0.667	0.734	0.442	0.548	0.407	0.514	0.441	–	–	–	–	–	0.198	0.147	0.18	0.181	0.158
